Several values for one entry are separate records, joined by “and”; a condition that tells them apart may be missing. Equal values may be shown once. Read-outs that look alike come from different tables or passages of the source.
Experiments:
[1] = Pharmacokinetics and distribution in brain tissue in rats; format: in vivo, Sprague Dawley rats; conditions: SD rats; for Vd: read-out: VdSS
Method: After K43 was administered to Sprague Dawley rats via intravenous injection or oral administration, blood sample and brain tissue were collected at different time points. the concentration of K43 in plasma and brain of rats after administration of the compounds was analyzed by LC-MS/MS and used to calculate the pharmacokinetic parameters, evaluating the oral bioavailability and distribution in brain tissue of K43 in rats.
24 SD rats, which were provided by SHANGHAI SLAC LABORATORY ANIMAL CO. LTD., were used to perform the experiments according to the following table.
About 0.15 mL of blood was collected through orbit per animal every time, and EDTAK2 was used for anticoagulation. For IV group, the time points for collection were before administration (0 hr), and 5 min, 15 min, 30 min, 1 h, 2 h, 4 h, 6 h, 8 h and 24 h after administration; and for PO group, the time points for collection were before administration (0 hr), 15 min, 30 min, 1 h, 2 h, 4 h, 6 h, 8 h and 24 h after administration. The time points for collecting brain tissue were 0.25, 0.5, 1, 2, 4, 6 and 24 h. The collected blood samples were placed on icen, and plasma was centrifuged within 1 h (centrifugal condition: 12000 rpm, 2 min, 4° C.). The collected plasma was cryopreserved in a −20° C. refrigerator before analysis.
Pharmacokinetic parameters after administration were calculated according to the obtained data of plasma concentration using the non-compartmental model of WinNonlin V6.3.

[2] = target: T1, KCNQ2 homotetramer channel (Homo sapiens, UniProt O43526); assay: KCNQ2 channel dose-response curve in CHO-K1 cells transfected with KCNQ2 plasmid; format: cell-based
T1 construct: expressed in transfected cells; host or cells: CHO-K1
Method: The culture medium for Chinese hamster oocytes (CHO-K1) (Culture Collection of Chinese Academy of Sciences): 50/50 DMEM/F-12 (Cellgro, Manassas, Va.), added with 10% fetal bovine serum (FBS) (Gibco, Australia) and 2 mM L-glutamic acid (Invitrogen). Expression of KCNQ channels: 24 h before transfection, CHO-K1 spreaded on a dish with a diameter of 60 mm. Lipofectamine 2000™ agent (Invitrogen) was used for Transfection according to the protocol thereof. GFP (green fluorescent protein) was cotransfected to be used as a indication of successful converting into KCNQ plasmid.
Whole-cell voltage-clamp recording was performed on an Axopatch-200B amplifier (Molecular Devices, Sunnyvale, Calif.) at room temperature. The electrode was made by drawing borosilicate glass capillary (World Precision Instruments, Sarasota, Fla.). The electric resistance of the electrode filled with an intracellular fluid is 3 to 5 MΩ. The composition of the intracellular fluid (1 L) was as follows: 145 mM KCl(Sigma), 1 mM MgCl2(Sigma), 5 mM EGTA(Sigma), 10 mM HEPES(Sigma) and 5 mM MgATP(Sigma) (pH was adjusted to 7.3 with KOH). During the recording, an extracellular fluid was continuously perfused by using a BPS perfusion system (ALA Scientific Instruments, Westburg, N.Y.). The composition of the extracellular fluid (1 L) was as follows: 140 mM NaCl(Sigma), 5 mM KCl(Sigma), 2 mM CaCl2(Sigma), 1.5 mM MgCl2(Sigma), 10 mM HEPES(Sigma) and 10 mM glucose(Sigma) (pH was adjusted to 7.4 with NaOH). Electric signal was filtered at 1 kHz and further converted into digital signal by using pClamp 9.2 software (Molecular Devices, Sunnyvale, Calif.) in DigiData 1322A. Series resistors compensate 60 to 80%. Up to date, multivoltage scheme was generally adopted, wherein the clamp voltage was set at −80 mV, stimulating voltage was a gradient voltage from −90 mV to 60 mV with interval of 10 mV, and the stimulating time for each voltage was 2000 ms.
The experimental procedure was the same as that in Electrophysiological Example 1. […]

[3] = IV 0.500 mg/kg, plasma, individual animals IV-1 to IV-3, 0.5 mg/kg
[4] = PO 5.00 mg/kg, plasma, individual animals PO-4 to PO-6, 5 mg/kg
[5] = Sprague-Dawley, rat, plasma, iv, 0.5 mg/kg, IV 0.500 mg/kg, individual animals IV-1 to IV-3
[6] = Sprague-Dawley, rat, plasma, iv, 0.5 mg/kg, IV 0.500 mg/kg, mean

T1 sequence (O43526 whole entry): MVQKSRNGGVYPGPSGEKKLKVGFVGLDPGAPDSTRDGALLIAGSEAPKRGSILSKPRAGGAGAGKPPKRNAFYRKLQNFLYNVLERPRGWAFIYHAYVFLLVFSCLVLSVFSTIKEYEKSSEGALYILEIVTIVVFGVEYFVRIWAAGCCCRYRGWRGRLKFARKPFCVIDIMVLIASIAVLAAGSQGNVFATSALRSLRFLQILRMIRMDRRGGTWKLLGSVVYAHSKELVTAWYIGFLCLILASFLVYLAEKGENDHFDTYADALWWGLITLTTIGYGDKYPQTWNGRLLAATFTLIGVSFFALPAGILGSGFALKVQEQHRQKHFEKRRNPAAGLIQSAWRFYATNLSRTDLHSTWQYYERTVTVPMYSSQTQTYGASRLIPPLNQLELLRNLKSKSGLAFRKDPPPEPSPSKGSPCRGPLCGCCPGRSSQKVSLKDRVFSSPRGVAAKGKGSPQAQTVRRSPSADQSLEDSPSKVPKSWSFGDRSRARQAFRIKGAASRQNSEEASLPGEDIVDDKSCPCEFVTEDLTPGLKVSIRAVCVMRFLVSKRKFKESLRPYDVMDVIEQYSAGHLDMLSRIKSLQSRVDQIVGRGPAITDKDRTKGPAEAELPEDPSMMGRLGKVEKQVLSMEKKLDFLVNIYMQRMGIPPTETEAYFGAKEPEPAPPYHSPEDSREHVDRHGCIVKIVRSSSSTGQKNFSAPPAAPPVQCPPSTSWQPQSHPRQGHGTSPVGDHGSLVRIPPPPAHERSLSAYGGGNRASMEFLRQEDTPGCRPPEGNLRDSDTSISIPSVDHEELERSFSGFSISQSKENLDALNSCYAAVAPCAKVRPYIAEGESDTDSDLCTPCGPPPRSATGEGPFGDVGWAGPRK

In the case of C#CCN(Cc1ccc(F)cc1)c1cc(C)c(NC(=O)OC)c(C)c1 [Compound K43, methyl 4-(N-parafluorobenzyl-N-propargyl-amino)-2,6-dimethylphenylaminoformate], the AUC0-t [1, 3] is reported as 232 ng·h/mL and 239 ng·h/mL, the AUC(0-inf) [1, 3] is reported as 236 ng·h/mL and 242 ng·h/mL and the AUMC0-inf [1, 3] is reported as 304 h · h · ng · mL^−1 and 295 h · h · ng · mL^−1 and 293 h · h · ng · mL^−1. The AUMC0-t [1, 3] was 287 h · h · ng · mL^−1 and 258 h · h · ng · mL^−1 and 270 h · h · ng · mL^−1, the CL [1, 3] was 35.3 mL/min/kg and 34.5 mL/min/kg and the Kcl [1, 3] was 0.552 h⁻¹ and 0.427 h⁻¹ and 0.516 h⁻¹. The MRTIV [1, 3] was 1.38 h and 1.25 h and 1.21 h, the VdSS [1, 3] was 2.65 L/kg and 2.51 L/kg and the t1/2 [1, 3] was 1.62 h and 1.34 h. It also gave an AUMC0-inf ([1]; IV 0.500 mg/kg, plasma, mean) of 297 h · h · ng · mL^−1, an AUMC0-t ([1]; IV 0.500 mg/kg, plasma, mean) of 271 h · h · ng · mL^−1 and a Kcl ([1]; IV 0.500 mg/kg, plasma, mean) of 0.498 h⁻¹. For the same compound, the MRTIV ([1]; IV 0.500 mg/kg, plasma, mean) was 1.28 h, the AUC(0-inf) ([1]; PO 5.00 mg/kg, brain tissue) was 4314 ng·h/g and the AUMC0-inf ([1]; PO 5.00 mg/kg, brain tissue) was 85535 h · h · ng · g^−1. For the same compound, the AUMC0-t ([1]; PO 5.00 mg/kg, brain tissue) was 25306 h · h · ng · g^−1, the Kel ([1]; PO 5.00 mg/kg, brain tissue) was 0.0542 h⁻¹ and the MRTPO ([1]; PO 5.00 mg/kg, brain tissue) was 19.8 h. For the same compound, the AUC0-t ([1]; PO 5.00 mg/kg, brain tissue (AUC0→24 hr)) was 2895 ng·h/g, the F ([1]; PO 5.00 mg/kg, individual animals PO-4 to PO-6, 5 mg/kg) was 20.3% and 59.9% and 16.5% and the AUC0-t [1, 4] was 467 ng·h/mL and 1379 ng·h/mL and 379 ng·h/mL. The AUC(0-inf) [1, 4] was 471 ng·h/mL and 1605 ng·h/mL and 407 ng·h/mL, the AUMC0-inf [1, 4] was 2497 h · h · ng · mL^−1 and 18103 h · h · ng · mL^−1 and 1256 h · h · ng · mL^−1 and the AUMC0-t [1, 4] was 2360 h · h · ng · mL^−1 and 10030 h · h · ng · mL^−1 and 957 h · h · ng · mL^−1. The Cmax [1, 4] was 62.7 ng/mL and 138 ng/mL and 107 ng/mL, the Kcl [1, 4] was 0.186 h⁻¹ and 0.0857 h⁻¹ and 0.371 h⁻¹ and the MRTPO [1, 4] was 5.30 h and 11.3 h and 3.09 h. For the same compound, the Tmax [1, 4] was 4.00 h and 1.00 h, the t1/2 [1, 4] was 3.74 h and 8.09 h and 1.87 h and the AUMC0-inf ([1]; PO 5.00 mg/kg, plasma, mean) was 7285 h · h · ng · mL^−1. For the same compound, the AUMC0-t ([1]; PO 5.00 mg/kg, plasma, mean) was 4449 h · h · ng · mL^−1, the Kcl ([1]; PO 5.00 mg/kg, plasma, mean) was 0.214 h⁻¹ and the MRTPO ([1]; PO 5.00 mg/kg, plasma, mean) was 6.55 h. The half-life ([1]; Sprague-Dawley, rat, brain, po, 5 mg/kg, PO 5.00 mg/kg, brain tissue) was 12.8 h, the Cmax ([1]; Sprague-Dawley, rat, brain, po, 5 mg/kg, PO 5.00 mg/kg, brain tissue, read-out: Cmax) was 366 ng/g and the Tmax ([1]; Sprague-Dawley, rat, brain, po, 5 mg/kg, PO 5.00 mg/kg, brain tissue, read-out: tmax) was 2 h. For the same compound, the clearance [1, 5] was 37.8 mL/min/kg, the half-life [1, 5] was 1.26 h and the clearance [1, 6] was 35.8 ± 1.7 mL/min/kg. It also gave a half-life [1, 6] of 1.41 ± 0.191 h, an AUC(0-inf) ([1]; Sprague-Dawley, rat, plasma, iv, 0.5 mg/kg, IV 0.500 mg/kg, plasma, individual animals IV-1 to IV-3, read-out: AUC0-inf) of 221 ng·h/mL and an AUC0-t ([1]; Sprague-Dawley, rat, plasma, iv, 0.5 mg/kg, IV 0.500 mg/kg, plasma, individual animals IV-1 to IV-3, read-out: AUC0-t) of 219 ng·h/mL. The Vd ([1]; Sprague-Dawley, rat, plasma, iv, 0.5 mg/kg, IV 0.500 mg/kg, plasma, individual animals IV-1 to IV-3) was 3.13 L/kg, the AUC(0-inf) ([1]; Sprague-Dawley, rat, plasma, iv, 0.5 mg/kg, IV 0.500 mg/kg, plasma, mean, read-out: AUC0-inf) was 233 ng·h/mL and the AUC0-t ([1]; Sprague-Dawley, rat, plasma, iv, 0.5 mg/kg, IV 0.500 mg/kg, plasma, mean, read-out: AUC0-t) was 230 ng·h/mL. The Vd ([1]; Sprague-Dawley, rat, plasma, iv, 0.5 mg/kg, IV 0.500 mg/kg, plasma, mean) was 2.76 ± 0.324 L/kg, the half-life ([1]; Sprague-Dawley, rat, plasma, po, 5 mg/kg, PO 5.00 mg/kg, mean) was 4.56 h and the AUC0-t ([1]; Sprague-Dawley, rat, plasma, po, 5 mg/kg, PO 5.00 mg/kg, plasma, mean (AUC0→24 hr), read-out: AUC0-t) was 742 ± 554 ng·h/mL. It also gave an AUC(0-inf) ([1]; Sprague-Dawley, rat, plasma, po, 5 mg/kg, PO 5.00 mg/kg, plasma, mean, read-out: AUC0-inf) of 828 ng·h/mL, a Cmax ([1]; Sprague-Dawley, rat, plasma, po, 5 mg/kg, PO 5.00 mg/kg, plasma, mean, read-out: Cmax) of 103 ± 37.8 ng/mL and a Tmax ([1]; Sprague-Dawley, rat, plasma, po, 5 mg/kg, PO 5.00 mg/kg, plasma, mean, read-out: tmax) of 2.33 ± 1.53 h. The bioavailability ([1]; Sprague-Dawley, rat, plasma, PO 5.00 mg/kg, mean, read-out: F (oral bioavailability)) was 32.2 ± 24.1%, the EC50 ([2]; FIG. 1, Boltzmann fit, read-out: EC50) was 1.53 nM and the “agonistic activity on KCNQ2 homotetramer channel relative to RTG” value ([2]; fold of RTG) was “more than 800 times”.

Source: patent publication US10316008B2, “KCNQ potassium channel agonist, and preparation method therefor and use thereof” (SHANGHAI INSTITUTE OF MATERIA MEDICA, CHINESE ACADEMY OF …, priority 2014, dated 2019)
